{
  "source": "patent US10259781B2",
  "about": "“Imaging agents” (THE REGENTS OF THE UNIVERSITY OF MICHIGAN, priority 2012, dated 2019)",
  "key": {"[1]": {"tested_on": "cardiac sympathetic neurons", "test": "Isolated working rat heart model: neuronal uptake and clearance kinetics", "protocol": "(§1) The radiotracer was infused into the heart for 10 minutes to measure the tracer uptake rate into cardiac sympathetic neurons (Kup, shown in units of ml/min/g tissue wet). Then, the heart was infused with normal heart perfusate to measure the tracer clearance rate from the heart over 2 hours.\n(§2) Experiments were conducted to test ^11C-phenoxyethylguanidine (PEG), e.g., to establish baseline values for the NET transport rate (Kup, expressed in units of mL perfusate/min/g wet) and the clearance rate from sympathetic neurons (T1/2, expressed in units of hours)."}, "[2]": {"tested_on": "cardiac sympathetic neurons (NET-mediated neuronal uptake)", "test": "Isolated working rat heart model: neuronal uptake and clearance kinetics", "conditions": "isolated working rat heart (perfused, ex vivo), read-out: clearance rate from sympathetic neurons, major half-time (T1/2) (converted)", "protocol": "as §1, §2"}, "[3]": {"test": "Metabolic breakdown in monkey plasma (reverse-phase HPLC of venous blood samples)", "type": "in vivo, rhesus macaque monkey", "conditions": "monkey plasma", "protocol": "In some of the microPET studies, venous blood samples (e.g., n=6) were drawn to assess the metabolic breakdown of [^18F]4F-MHPG in plasma (see Table 1). Plasma was processed for injection onto a reverse-phase HPLC system equipped with a radiation detector. The percentages of intact parent tracer and radiolabeled metabolites were determined as a function of time. In this system, [^18F]4-MHPG has a retention time Rt of approximately 11.2 minutes while the main polar radiometabolite formed has an Rt of approximately 7.9 minutes."}, "[4]": {"test": "Biodistribution in rats", "type": "in vivo, rat", "conditions": "30 minutes after injection, n=5", "protocol": "During the development of embodiments of the technology, data were collected from bioevaluation studies of [^18F]4F-MHPG. […]\nDuring the development of embodiments of the technology provided herein, the biodistribution of [^18F]4F-MHPG into the organs of rats was assessed. In particular, four time points (Table 3) were collected and used to derive human radiation absorbed dose estimates using the OLINDA/EXM 1.0 software package (see, e.g., Stabin et al. (2005) “OLINDA/EXM; the second-generation personal computer software for internal dose assessment in nuclear medicine”, J Nucl Med. 46: 1023-7). […] These values were entered into the Dynamic Bladder model of OLINDA/EXM, assuming a 4.0-hour void interval. Organs with the highest absorbed dose estimates included the urinary bladder wall (0.666 rad/mCi), […] (0.221 rad/mCi), small intestine (0.201 rad/mCi), and the heart wall (0.201 rad/mCi). An ‘effective dose’ of 0.091 rem/mCi was estimated for [^18F]4F-MHPG. Under United States Federal Regulations governing research with a new radiopharmaceutical (21 CFR § 361.1), the maximum allowable radiation absorbed dose to an individual organ (other than the gonads) is 5 rad. Considering the maximum estimated absorbed dose (urinary bladder wall; 0.666 rad/mCi), initial PET studies in human subjects could use a maximum of 7.5 mCi of [^18F]4F-MHPG. This would correspond to an ‘effective dose’ of 0.68 rem."}, "[5]": {"tested_on": "cardiac sympathetic nerve terminals", "test": "MicroPET imaging and myocardial kinetics (compartmental modeling, Patlak graphical analysis) in monkeys", "type": "in vivo, rhesus macaque monkey", "conditions": "indirect evidence from myocardial kinetics in monkeys", "protocol": "A series of microPET imaging studies were performed in the macaque model to assess image quality and tracer kinetics. In most of these the time course of the metabolic breakdown of [^18F]4F-MHPG in plasma was also determined. The studies are summarized below in Table 1.\nDuring the development of embodiments of the technology provided herein, the kinetics of [^18F]4F-MHPG in monkey hearts was assessed using either compartmental modeling or Patlak graphical analysis to obtain quantitative measures of regional cardiac sympathetic nerve density.\nFor some analyses, a simplified compartmental model that assumed irreversible trapping inside nerve terminals was used to estimate the model rate constants K1 (ml/min/g), k2 (min^−1), k3 (min^−1), and a blood volume fraction BV (dimensionless) (see, e.g., FIG. 7). In both the control studies and DMI blocking studies, the model quickly converged to a single global minimum in just a few iterations of the nonlinear regression analysis (FIG. 8). […] This aggregate parameter provides a stable measure of cardiac nerve density that declined in a dose-dependent manner with increasing DMI dose (FIG. 9, “Kinetic modeling”).\nFor some analyses, Patlak graphical analysis was used, which uses a mathematical transformation of the kinetic data Cp(t) and Ct(t) to generate a Tatlak plot′ having a characteristic linear phase (see, e.g., Patlak and Blasberg (1985) “Graphical evaluation of blood-to-brain transfer constants from multiple-time uptake data. Generalizations.” J Cereb Blood Flow 5: 584-90). The slope of the linear portion of a Patlak plot, Kp (ml/min/g), provides an alternate estimate of the ‘net uptake rate constant’ Ki (ml/min/g). Thus, for the model structure used (FIG. 7), the slope of the Patlak plot is given by Kp≈(K1k3)/(k2+k3).\nDuring the development of embodiments of the technology provided herein, the myocardial kinetics of [^18F]4F-MHPG was assessed using Patlak graphical analysis and metabolite-corrected plasma input functions. In this example, the Patlak plot is highly linear (r^2=1.00) and the estimated Patlak slope Kpatlak=0.252 ml/min/g. […] As such, regional estimates of the Patlak slope from Patlak analysis of the kinetics of [^18F]4F-MHPG serve as robust measures of regional cardiac sympathetic nerve density in patients with heart diseases."}},
  "data": [
    {"compound": "N=C(N)NCCOc1ccc(F)cc1", "note": "[4F-PEG, ^11C-4-fluoro-phenoxyethylguanidine]", "values": [
      {"measurement": "neuronal uptake rate / NET transport rate (Kup)", "setting": "[1]", "value": 7.25, "unit": "mL/min/g wet"},
      {"measurement": "half-life", "setting": "[2]", "value": 3.5, "unit": "h"}
    ]},
    {"compound": "N=[11C](N)NCC(O)c1cccc(O)c1", "note": "(centres unmarked) [GMO, [^11C]guanyl-meta-octopamine, reference compound]", "values": [
      {"measurement": "T1/2 for metabolic breakdown in plasma", "setting": "[3]", "value": "approximately 13 minutes"}
    ]},
    {"compound": "N=C(N)NCCOc1cccc(O)c1", "note": "[MHPEG, ^11C-meta-hydroxy-phenoxyethylguanidine]", "values": [
      {"measurement": "neuronal uptake rate / NET transport rate (Kup)", "setting": "[1]", "value": 5.37, "unit": "mL/min/g wet"},
      {"measurement": "vesicular trapping / retention", "setting": "[1]", "value": "complete trapping"}
    ]},
    {"compound": "N=C(N)NCCOc1ccccc1", "note": "[PEG, ^11C-phenoxyethylguanidine]", "values": [
      {"measurement": "neuronal uptake rate / NET transport rate (Kup)", "setting": "[1]", "value": 5.37, "unit": "mL/min/g wet"},
      {"measurement": "half-life", "setting": "[2]", "value": 5.7, "unit": "h"}
    ]},
    {"compound": "N=C(N)NCCc1ccc(F)c(O)c1", "note": "[[^11C]4F-MHPG] [^11C-4-fluoro-meta-hydroxyphenethylguanidine]", "values": [
      {"measurement": "tissue concentration, adrenal medulla", "setting": "[4]", "value": "0.56 ± 0.21 percentage of the injected dose per gram"},
      {"measurement": "tissue concentration, blood", "setting": "[4]", "value": "0.08 ± 0.01 percentage of the injected dose per gram"},
      {"measurement": "tissue concentration, left ventricle", "setting": "[4]", "value": "1.77 ± 0.27 percentage of the injected dose per gram"},
      {"measurement": "tissue concentration, liver", "setting": "[4]", "value": "1.22 ± 0.18 percentage of the injected dose per gram"},
      {"measurement": "tissue concentration, lung", "setting": "[4]", "value": "0.56 ± 0.15 percentage of the injected dose per gram"},
      {"measurement": "tissue concentration, muscle", "setting": "[4]", "value": "0.07 ± 0.01 percentage of the injected dose per gram"},
      {"measurement": "tissue concentration, spleen", "setting": "[4]", "value": "0.52 ± 0.10 percentage of the injected dose per gram"}
    ]},
    {"compound": "N=[11C](N)NCCOc1ccc(O)c(F)c1", "note": "[^11C-3F-PHPEG, ^11C-3-fluoro-para-hydroxy-phenoxyethylguanidine]", "values": [
      {"measurement": "neuronal uptake rate / NET transport rate (Kup)", "setting": "[1]", "value": 4.26, "unit": "mL/min/g wet"}
    ]},
    {"compound": "N=[11C](N)NCCOc1ccc(F)c(O)c1", "note": "[^11C-4F-MHPEG, ^11C-4-fluoro-meta-phenoxyethylguanidine]", "values": [
      {"measurement": "neuronal uptake rate / NET transport rate (Kup)", "setting": "[1]", "value": 2.66, "unit": "mL/min/g wet"},
      {"measurement": "vesicular trapping / retention", "setting": "[1]", "value": "effectively trapped inside storage vesicles"}
    ]},
    {"compound": "N=C(N)NCC1COc2ccc(O)cc2O1", "note": "(centres unmarked) [^11C-7H-GOX, ^11C-7-hydroxy-guanoxan]", "values": [
      {"measurement": "retention time, compared between the two ring hydroxylated guanoxan analogs", "setting": "[1]", "value": "longer retention time"},
      {"measurement": "uptake, compared between the two ring hydroxylated guanoxan analogs", "setting": "[1]", "value": "more rapid uptake"}
    ]},
    {"compound": "N=C(N)NCCc1ccc([18F])c(OS(=O)(=O)O)c1", "note": "[sulfur conjugate of [^18F]4-MHPG]", "values": [
      {"measurement": "activity at the norepinephrine transporter (NET)", "setting": "[5]", "value": "inactive"}
    ]}
  ]
}
